The source of these data is patent publication US10493170B1, “Targeted graphene quantum dot-based theranostics” (University of South Florida, priority 2014, dated 2019).

Assay type in all cases: cell-based
In assay [1] the test system is normal ovary epithelial cells T80. Nature of the assay: MTT cell viability assay, T80. The conditions noted are these: T80, 24 h, concentration equivalent to Dox, read-out: IC50 (relative cellular viability). As to the method: (§1) Cells were treated with various concentrations of GQDs-FA-Dox (0, 0.25, 0.5, 1, 2, and 4 μM equivalent to Dox) for 24 h and 48 h, respectively. Cell viability was determined by the MTT assay. In brief, the cells were treated with GQDs-FA-Dox conjugates, 10 μL MTT (5 mg/ml) was added into each well and incubated for 4 h, culture medium was removed and 100 μL DMSO was added to dissolve formazan crystals. Absorbance was read at 560 nm for formazan and 670 nm for background by Synergy H4 hybrid multi-mode microplate reader (BioTek).
(§2) To determine the effective dosage of GQDs-FA-Dox on ovarian cancer cells and normal cells, a dose-course MTT assay was done on Ovcar3 cells. The cells were treated with a series of concentration of DOX, GQDs-FA-Dox, and GQDs-Dox for 0.01 to 4 μM (equivalent to Dox concentration) for 24 h.
A general note: Formazan colour is commonly taken as a measure of viable cells.

The next assay deals with ovarian cells Ovcar3. Nature of the assay: MTT cell viability assay, Ovcar3. The conditions noted are these: Homo sapiens, OVCAR-3; Ovcar3, 24 h, concentration equivalent to Dox; read-out: IC50 (relative cellular viability). As to the method: as §1, §2
The subject of assay [2] is ovarian cancer cells ovcar3. Nature of the assay: Colony formation assay, ovcar3. As to the method: Colony formation assays were performed with ovarian cancer cells ovcar3 and ovarian surface epithelial cells T80 to examine the impact of DOX, […]-Dox, or GQDs-Dox on the cell growth inhibition.

pIC50: −log10 of the molar value.

Broadly, the pIC50 is −log10 of the IC50, conventionally taken in molar units. With `COc1cccc2c1C(=O)c1c(O)c3c(c(O)c1C2=O)C[C@@](O)(C(=O)CO)C[C@@H]3O[C@H]1C[C@H](N)[C@H](O)[C@H](C)O1` [DOX, Doxorubicin], the pIC50 in assay [1] was 6.07; with ovarian cells Ovcar3, 6.03. Besides, the colony growth entry in assay [2] (ovcar3) was “strongly inhibited”.

Consider `Nc1nc2ncc(CNc3ccc(C(=O)N[C@@H](CCC(=O)O)C(=O)O)cc3)nc2c(=O)[nH]1` [Folic acid, folic acid], for which the “effect of folic acid on ovcar3 cells in response of GQDs-FA-DOX” value in assay [2] (ovcar3, colony formation, co-treatment with GQDs-FA-DOX) is recorded as “protective effect”.
